According to patent US20070066686A1, “Infusion preparation containing (2r)-2-propyloctanoic acid as at the active ingredient” (ONO PHARMACEUTICAL CO., LTD., priority 2003, published 2007):

System: dog
Test: single intravenous administration toxicity using a dog
Type: in vivo
Conditions: dose of 100 mg/kg
From the text: Toxicity of (2R)-2-propyloctanoic acid or a salt thereof is very low, and it is considered to be sufficiently safe for the use as a pharmaceutical drug.

Compound: CCCCCC[C@@H](CCC)C(=O)O [(2R)-2-propyloctanoic acid]
- death after single intravenous administration: did not result in death
